Measured values from PMC11063076, “Structural investigation of Trypanosoma cruzi Akt-like kinase as drug target against Chagas disease” (Scientific Reports, 2024).

Target: T1, TcAkt (T. cruzi Akt-like kinase), PH domain (Trypanosoma cruzi, UniProt Q4D6D3)
T1 construct: gene Tc00.1047053509047.110; TcAkt-PH (aa 1–105), C-terminal 6xHis-tag
Experiment: NMR 1H-15N HSQC chemical shift perturbation titration; hetNOE
Type: binding

T1 sequence (Q4D6D3 entry or part of it): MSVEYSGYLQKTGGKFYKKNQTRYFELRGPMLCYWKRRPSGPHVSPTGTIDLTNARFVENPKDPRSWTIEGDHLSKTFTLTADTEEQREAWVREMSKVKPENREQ

`O=P(O)(O)O[C@H]1[C@H](O)[C@@H](OP(=O)(O)O)[C@H](OP(=O)(O)O)[C@@H](OP(=O)(O)O)[C@H]1O` [Ins(1,3,4,5)P4] showed a Kd of 40 ± 14 µM.
